These results are taken from ChEMBL document CHEMBL4152334, “Synthesis, molecular docking and biological evaluation of novel phthaloyl derivatives of 3-amino-3-aryl propionic acids as inhibitors of Trypanosoma cruzi trans-sialidase” (2018).

In experiment [1] the target is T1, Trans-sialidase (Trypanosoma cruzi) (UniProt Q26964).
T1 sequence (whole entry): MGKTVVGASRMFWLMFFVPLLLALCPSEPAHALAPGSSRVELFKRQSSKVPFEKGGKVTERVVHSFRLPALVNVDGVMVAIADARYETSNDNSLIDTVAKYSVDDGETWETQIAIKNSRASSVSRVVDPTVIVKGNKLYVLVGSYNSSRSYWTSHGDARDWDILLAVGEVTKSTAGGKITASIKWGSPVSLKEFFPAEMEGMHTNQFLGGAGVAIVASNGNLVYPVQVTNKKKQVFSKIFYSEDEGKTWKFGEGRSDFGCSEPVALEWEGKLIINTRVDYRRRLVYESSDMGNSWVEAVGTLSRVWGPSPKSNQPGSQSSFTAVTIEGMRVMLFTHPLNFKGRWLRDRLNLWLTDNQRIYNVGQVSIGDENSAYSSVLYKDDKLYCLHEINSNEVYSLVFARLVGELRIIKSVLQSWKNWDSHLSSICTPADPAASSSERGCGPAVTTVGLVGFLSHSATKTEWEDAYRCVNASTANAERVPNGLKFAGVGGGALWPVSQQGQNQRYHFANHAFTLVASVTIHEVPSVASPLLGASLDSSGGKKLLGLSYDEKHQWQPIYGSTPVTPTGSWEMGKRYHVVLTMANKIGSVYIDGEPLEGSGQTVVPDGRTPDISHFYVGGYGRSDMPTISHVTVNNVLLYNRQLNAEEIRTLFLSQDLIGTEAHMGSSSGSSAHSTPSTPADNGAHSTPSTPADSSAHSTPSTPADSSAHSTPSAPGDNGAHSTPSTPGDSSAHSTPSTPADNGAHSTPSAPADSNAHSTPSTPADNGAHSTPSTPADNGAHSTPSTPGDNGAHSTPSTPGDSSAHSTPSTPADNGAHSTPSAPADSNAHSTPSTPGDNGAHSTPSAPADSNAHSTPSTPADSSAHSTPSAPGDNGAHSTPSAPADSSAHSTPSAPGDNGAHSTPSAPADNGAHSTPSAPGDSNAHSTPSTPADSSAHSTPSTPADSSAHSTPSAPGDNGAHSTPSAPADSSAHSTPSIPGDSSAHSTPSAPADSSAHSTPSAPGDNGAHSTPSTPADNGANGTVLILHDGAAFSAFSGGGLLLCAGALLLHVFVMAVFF
Description: Inhibition of Trypanosoma cruzi trans-sialidase at 1 mM assessed as reduction of 3'-sialyl-N-acetyllactosamine formation at 1 mM using N-acetyllactosamine as substrate and 3-sialyl-lactose as donor incubated for 15 mins by HPAEC-PAD relative to control.

The test system of experiment [2] is Trypanosoma cruzi. Briefly: Trypanocidal activity against trypomastigote stage of Trypanosoma cruzi INC-5 infected in NIH mouse blood assessed as parasite lysis at 10 ug/ml after 24 hrs by optical microscopic method relative to control. It is filed as functional.
Experiment [3] relates to Trypanosoma cruzi. Description: Trypanocidal activity against trypomastigote stage of Trypanosoma cruzi NINOA infected in NIH mouse blood assessed as parasite lysis at 10 ug/ml after 24 hrs by optical microscopic method relative to control. It is filed as functional.
The test system of experiment [4] is Trypanosoma cruzi. Briefly: Trypanocidal activity against trypomastigote stage of Trypanosoma cruzi NINOA infected in NIH mouse blood assessed as […] parasite lysis after 24 hrs by optical microscopic method. In kind it is functional.
For experiment [5], the system named is Trypanosoma cruzi. Description: Trypanocidal activity against trypomastigote stage of Trypanosoma cruzi INC-5 infected in NIH mouse blood assessed as parasite lysis after 24 hrs by optical microscopic method. It is filed as functional. The settings on record: INC-5, Blood.

On to `O=C(O)CC(c1ccco1)N1C(=O)c2ccccc2C1=O` (stereo not given), for which, in experiment [1], the inhibition (as a rule, the percentage by which the read-out fell short of the control) worked out at 76.5%. The Activity worked out at 21% in the experiment on Trypanosoma cruzi [2] and 16% with Trypanosoma cruzi [3].

Take `O=C(O)CC(c1ccco1)N1C(=O)c2ccc(C(=O)O)cc2C1=O` (stereo not given): the results for the LC50 with Trypanosoma cruzi [4] and with Trypanosoma cruzi [5] were 77.6 µM and 102 µM, respectively. In experiment [1], the inhibition was 19.2%. In addition, the values for the Activity in the experiment on Trypanosoma cruzi [2] and in the experiment with Trypanosoma cruzi [3] were 55% and 77%, respectively.

Regarding `Cc1ccc2c(c1)C(=O)N(C(CC(=O)O)c1ccc3ccccc3c1)C2=O` (stereo not given), the values for the LC50 with Trypanosoma cruzi [4] and in the experiment with Trypanosoma cruzi [5] were 52.7 µM and 46.2 µM, respectively. Further, in experiment [1], the inhibition was 86.9%. The Activity was determined as 65% in the experiment with Trypanosoma cruzi [2] and 63% in the experiment on Trypanosoma cruzi [3].

Take `NC(CC(=O)O)c1ccc(O)cc1` (stereo not given): the figures for the LC50 in the experiment on Trypanosoma cruzi [4] and in the experiment on Trypanosoma cruzi [5] were 152 µM and 127 µM, respectively. Further, the inhibition in experiment [1] amounted to 1.4%. The results for the Activity in the experiment with Trypanosoma cruzi [2] and with Trypanosoma cruzi [3] were 76% and 50%, respectively.

As for `Cc1ccc2c(c1)C(=O)N(C(CC(=O)O)c1ccc(O)cc1)C2=O` (stereo not given), in experiment [1], the inhibition turned out to be 82.5%. The Activity with Trypanosoma cruzi [2] is reported as 15%; with Trypanosoma cruzi [3] it was 38%.

Regarding `O=C(O)CC(c1ccc2ccccc2c1)N1C(=O)c2ccccc2C1=O` (stereo not given), the LC50 (as a rule, the concentration lethal to half of the exposed cells or organisms) in the experiment with Trypanosoma cruzi [4] was 97.3 µM; in the experiment with Trypanosoma cruzi [5] it was 117 µM. Besides, the inhibition in experiment [1] was 65.8%. Moreover, the Activity in the experiment on Trypanosoma cruzi [2] is reported as 62%; in the experiment with Trypanosoma cruzi [3], 57%.

Regarding `NC(CC(=O)O)c1ccc2ccccc2c1` (stereo not given), the LC50 worked out at 98.7 µM with Trypanosoma cruzi [4] and 103 µM in the experiment with Trypanosoma cruzi [5]. The inhibition in experiment [1] was determined as 8.3%. The Activity in the experiment with Trypanosoma cruzi [2] and in the experiment on Trypanosoma cruzi [3] was 60% throughout.

Take `O=C(O)CC(c1ccc2ccccc2c1)N1C(=O)c2ccc(C(=O)O)cc2C1=O` (stereo not given): the inhibition in experiment [1] came out at 66.9%. Further, the Activity in the experiment on Trypanosoma cruzi [2] amounted to 24%; in the experiment on Trypanosoma cruzi [3] it was 42%.

As for `O=C(O)CC(c1ccc(O)cc1)N1C(=O)c2ccc(C(=O)O)cc2C1=O` (stereo not given), in experiment [1], the inhibition worked out at 53%. For the same compound, the Activity in the experiment with Trypanosoma cruzi [2] is reported as 71%; in the experiment with Trypanosoma cruzi [3] it was 43%.

For the compound `Cc1ccc2c(c1)C(=O)N(C(CC(=O)O)c1ccco1)C2=O` (stereo not given), the inhibition in experiment [1] stood at 40%. Moreover, the Activity is 40% with Trypanosoma cruzi [2] and 27% in the experiment with Trypanosoma cruzi [3].

Regarding `O=C(O)CC(c1ccc(O)cc1)N1C(=O)c2ccccc2C1=O` (stereo not given), the figures for the LC50 in the experiment with Trypanosoma cruzi [4] and with Trypanosoma cruzi [5] were 71.4 µM and 91 µM, respectively. Moreover, the inhibition in experiment [1] stood at 5.6%. For the same compound, the Activity was 68% in the experiment on Trypanosoma cruzi [2] and 77% in the experiment with Trypanosoma cruzi [3].

`NC(CC(=O)O)c1ccco1` (stereo not given): the LC50 was determined as 99.1 µM with Trypanosoma cruzi [4] and 229 µM with Trypanosoma cruzi [5]. Moreover, the inhibition in experiment [1] came out at 11.9%. Moreover, the Activity with Trypanosoma cruzi [2] amounted to 50%; in the experiment on Trypanosoma cruzi [3] it was 53%.
